Data taken from patent US20260325685A1, “Radiopharmaceutical Compositions Targeting Carbonic Anhydrase IX and Uses Thereof” (RayzeBio, Inc., priority 2023, published 2026).
Read-outs that look alike come from different tables or passages of the source.

Legend:
human CA-XII = biological target: T1, human CA-XII (Homo sapiens, UniProt O43570); test: Surface Plasmon Resonance (SPR) binding kinetics to recombinant human CA-XII (Biacore 8K, single-cycle kinetics, 1:1 binding model)
T1 construct: purchased Creative BioMart CA12-261H
T1 sequence (O43570 25-354): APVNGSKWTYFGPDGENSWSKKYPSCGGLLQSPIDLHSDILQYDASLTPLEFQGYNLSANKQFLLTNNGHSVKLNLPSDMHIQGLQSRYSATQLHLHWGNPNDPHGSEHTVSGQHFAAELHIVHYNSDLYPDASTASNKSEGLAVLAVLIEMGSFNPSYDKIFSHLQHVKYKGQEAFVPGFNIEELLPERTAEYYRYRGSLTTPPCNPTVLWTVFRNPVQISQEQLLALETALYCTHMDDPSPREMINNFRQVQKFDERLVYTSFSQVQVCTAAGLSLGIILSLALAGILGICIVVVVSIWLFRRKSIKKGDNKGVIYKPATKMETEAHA
Protocol: (§1) G1. Surface Plasmon Resonance Assay Conditions for hCA-IX and hCA-XII
(§2) Surface Plasmon Resonance (SPR) experiments were conducted on a Biacore 8K instrument (Cytiva, Marlborough, MA) to determine the binding kinetics of the compound to recombinant human CA-IX (Acro, CA9-H82E3) and CA-XII (Creative BioMart, CA12-261H) proteins. The ligands were diluted to 10 μg/mL in PBS-P+ buffer (20 mM phosphate buffer, pH 7.4, with 2.7 mM KCl, 137 mM NaCl, and 0.05% Tween 20) and captured on Series S Streptavidin Sensor Chips (Cytiva, 29699621) to 1200-1800 response units (RU) using a flow rate of 5 μL/min and injection times of 180 seconds for human CA-IX and 75 seconds for human CA-XII. Analyte binding was evaluated using a single-cycle kinetics method over 9 analyte concentrations (100-0.39 nM) in PBS-P+ buffer with 1% DMSO using a 50 μL/min. flow rate, 120 second association time, and 1200 second dissociation time. The flow cell temperature was set to 25° C. Analyte binding curves were fit to a 1:1 binding kinetic model in Biacore Insight Evaluation software (version 4.0.8.20368) following reference flow cell subtraction and DMSO correction to derive the association and dissociation binding constants.

human CA-IX = biological target: T2, human CA-IX (Homo sapiens, UniProt Q16790); test: Surface Plasmon Resonance (SPR) binding kinetics to recombinant human CA-IX (Biacore 8K, single-cycle kinetics, 1:1 binding model)
T2 construct: purchased Acro CA9-H82E3
Protocol: as §1, §2

[1] = Chelated Metal: Lu-175, 25° C., pH 7.4, read-out: CAXII KD
[2] = Chelated Metal: Lu-175; SPR, 25° C., pH 7.4; read-out: CAIX KD
[3] = Chelated Metal: None, 25° C., pH 7.4, read-out: CAXII KD
[4] = Chelated Metal: None; SPR, 25° C., pH 7.4; read-out: CAIX KD
[5] = KD ratio CAXII/CAIX; Chelated Metal: None
[6] = read-out: CAXII KD, Chelated Metal: Lu-175, 25° C., pH 7.4
[7] = read-out: CAIX KD; Chelated Metal: Lu-175; SPR, 25° C., pH 7.4

Row | Compound | Kd (human CA-XII; [1]) | Kd (human CA-IX; [2]) | other results
1 | CC(CCCC(=O)N1CCC(C(N)=O)(C(=O)NCC(=O)NC2(C(=O)NCCn3cc(C45CCC(C(=O)Nc6nnc(S(N)(=O)=O)s6)(CC4)CC5)nn3)CCN(C(=O)CN3CCN(CC(=O)O)CCN(CC(=O)O)CCN(CC(=O)O)CC3)CC2)CC1)(c1ccc(O)cc1)c1ccc(O)cc1.[Lu+3] [Compound 117.6] | 1 to 2.5 nM | < 1 nM | 
2 | CC(CCCC(=O)N1CCC(C(N)=O)(C(=O)NCC(=O)N2CCN(C(=O)CCOCCOCCCC(=O)CN3CCN(CC(=O)O)CCN(CC(=O)O)CCN(CC(=O)O)CC3)C[C@H]2C(=O)NCCn2cc(C34CC(C(=O)Nc5nnc(S(N)(=O)=O)s5)(C3)C4)nn2)CC1)(c1ccc(O)cc1)c1ccc(O)cc1 [Compound 129.4] |  |  | Kd (human CA-XII; [3]): > 10 nM; Kd (human CA-IX; [4]): < 1 nM; Ratio (CAXII/CAIX) (human CA-IX; [5]): **** (50 < ****)
3 | NS(=O)(=O)c1nnc(NC(=O)C23CC(c4cn(CCNC(=O)[C@@H]5CN(C(=O)CN6CCN(CC(=O)O)CCN(CC(=O)O)CCN(CC(=O)O)CC6)CCN5C(=O)CNC(=O)C5(C(=O)O)CCN(C(=O)Cc6n[nH]c7ccc(F)cc67)CC5)nn4)(C2)C3)s1.[Lu+3] [Compound 112.15] | > 10 nM | 1 to 2.5 nM | 
4 | Cc1c(C(F)(F)F)n[nH]c1C(=O)N1CCC(C(=O)O)(C(=O)NCC(=O)N2CCN(C(=O)CN3CCN(CC(=O)O)CCN(CC(=O)O)CCN(CC(=O)O)CC3)C[C@H]2C(=O)NCCn2cc(C34CC(C(=O)Nc5nnc(S(N)(=O)=O)s5)(C3)C4)nn2)CC1.[Lu+3] [Compound 112.13] | > 10 nM | 1 to 2.5 nM | 
5 | CC(CCCC(=O)N1CCC(C(N)=O)(C(=O)NCC(=O)N2CCN(C(=O)CN3CCN(CC(=O)O)CCN(CC(=O)O)CC3)C[C@@H]2C(=O)NCCn2cc(C34CC(C(=O)Nc5nnc(S(N)(=O)=O)s5)(C3)C4)nn2)CC1)(c1ccc(O)cc1)c1ccc(O)cc1.[Cu+2] [Compound 126.1] |  |  | Kd (human CA-XII; Chelated Metal: Cu (cold), 25° C., pH 7.4, read-out: CAXII KD): > 10 nM; Kd (human CA-IX; Chelated Metal: Cu (cold); SPR, 25° C., pH 7.4; read-out: CAIX KD): < 1 nM
6 | NS(=O)(=O)c1nnc(NC(=O)C23CC(c4cn(CCNC(=O)[C@@H]5CN(C(=O)CN6CCN(CC(=O)O)CCN(CC(=O)O)CCN(CC(=O)O)CC6)CCN5C(=O)C[C@H](Nc5ncc(C(=O)NCc6ccc(C(F)F)cc6)cn5)C(=O)O)nn4)(C2)C3)s1.[Lu+3] [Compound 111.6] | > 10 nM | 2.5 to 10 nM | 
7 | CC(CCCC(=O)N1CCC(C(N)=O)(C(=O)NCC(=O)NC2CCN(C(=O)CCOCCOCCOCCOCCN(CCOCCOCCOCCOCCC(=O)N3CCC(NC(=O)CNC(=O)C4(C(N)=O)CCN(C(=O)CCCC(C)(c5ccc(O)cc5)c5ccc(O)cc5)CC4)C(C(=O)NCCn4cc(C56CC(C(=O)Nc7nnc(S(N)(=O)=O)s7)(C5)C6)nn4)C3)C(=O)CNC(=O)CN3CCN(CC(=O)O)CCN(CC(=O)O)CCN(CC(=O)O)CC3)CC2C(=O)NCCn2cc(C34CC(C(=O)Nc5nnc(S(N)(=O)=O)s5)(C3)C4)nn2)CC1)(c1ccc(O)cc1)c1ccc(O)cc1.[Lu+3] (stereo not drawn) [Compound 131.7] | 1 to 2.5 nM | < 1 nM | 
8 | NS(=O)(=O)c1nnc(NC(=O)C23CC(c4cn(CCNC(=O)[C@@H]5CN(C(=O)CN6CCN(CC(=O)O)CCN(CC(=O)O)CCN(CC(=O)O)CC6)CCN5C(=O)C[C@H](NC(=O)C[C@H](NC(=O)CCC5CCCCCC5)C(=O)O)C(=O)O)nn4)(C2)C3)s1.[Lu+3] [Compound 109.2] | 1 to 2.5 nM | < 1 nM | 
9 | NS(=O)(=O)c1nnc(NC(=O)C23CCC(c4cn(CCNC(=O)[C@@H]5CN(C(=O)CN6CCN(CC(=O)O)CCN(CC(=O)O)CCN(CC(=O)O)CC6)CCN5C(=O)CC[C@H](NC(=O)C[C@H](NC(=O)c5n[nH]c6ccccc56)C(=O)O)C(=O)O)nn4)(CC2)CC3)s1.[Lu+3] [Compound 109.50] | < 1 nM | < 1 nM | 
10 | NS(=O)(=O)c1nnc(NC(=O)C23CC(c4cn(CCNC(=O)[C@@H]5CN(C(=O)CN6CCN(CC(=O)O)CCN(CC(=O)O)CCN(CC(=O)O)CC6)CCN5C(=O)CNC(=O)C5(C(=O)O)CCN(C(=O)c6ccc(C7CC7)nn6)CC5)nn4)(C2)C3)s1.[Lu+3] [Compound 112] |  |  | Kd (human CA-XII; [6]): > 10 nM; Kd (human CA-IX; [7]): 2.5 to 10 nM
11 | NS(=O)(=O)c1nnc(NC(=O)C23CC(c4cn(CCNC(=O)[C@@H]5CN(C(=O)CN6CCN(CC(=O)O)CCN(CC(=O)O)CCN(CC(=O)O)CC6)CCN5C(=O)C[C@H](NC(=O)C[C@H](NC(=O)Cc5ccc(S(F)(F)(F)(F)F)cc5)C(=O)O)C(=O)O)nn4)(C2)C3)s1.[Lu+3] [Compound 109.20] | 2.5 to 10 nM | < 1 nM | 
12 | NS(=O)(=O)c1nnc(NC(=O)C23CC(c4cn(CCNC(=O)[C@@H]5CN(C(=O)CN6CCN(CC(=O)O)CCN(CC(=O)O)CCN(CC(=O)O)CC6)CCN5C(=O)CNC(=O)C5(C(=O)O)CCN(C(=O)CCc6n[nH]c7ccccc67)CC5)nn4)(C2)C3)s1.[Lu+3] [Compound 112.4] | > 10 nM | 2.5 to 10 nM | 
13 | CC(CCC(=O)N1CCOC[C@H]1C(=O)N[C@@H](CC(=O)N1CCN(C(=O)CN2CCN(CC(=O)O)CCN(CC(=O)O)CCN(CC(=O)O)CC2)C[C@@H]1C(=O)NCCn1cc(C23CC(C(=O)Nc4nnc(S(N)(=O)=O)s4)(C2)C3)nn1)C(N)=O)(c1ccc(O)cc1)c1ccc(O)cc1.[Lu+3] [Compound 107.19] | > 10 nM | 1 to 2.5 nM | 
14 | NS(=O)(=O)c1nnc(NC(=O)C23CC(c4cn(CCNC(=O)[C@@H]5CN(C(=O)CN6CCN(CC(=O)O)CCN(CC(=O)O)CCN(CC(=O)O)CC6)CCN5C(=O)C[C@H](NC(=O)C[C@H](NC(=O)Cc5ccc(C6CC6)cc5)C(=O)O)C(=O)O)nn4)(C2)C3)s1 [Compound 109.63] |  |  | Kd (human CA-XII; [3]): 2.5 to 10 nM; Kd (human CA-IX; [4]): < 1 nM; Ratio (CAXII/CAIX) (human CA-IX; [5]): *** (10 < *** ≤ 50)
15 | CC(CCC(=O)N[C@@H](CC(=O)N[C@@H](CC(=O)NC1(C(=O)NCCOCCOCCNC(=O)CN2CCN(CC(=O)O)CCN(CC(=O)O)CCN(CC(=O)O)CC2)CN(C(=O)Cn2cc(CCC(=O)Nc3nnc(S(N)(=O)=O)s3)nn2)C1)C(=O)O)C(=O)O)(c1ccc(O)cc1)c1ccc(O)cc1.[Lu+3] [Compound 103.3] | > 10 nM | 2.5 to 10 nM | 
16 | NS(=O)(=O)c1nnc(NC(=O)C23CCC(c4cn(CCNC(=O)[C@@H]5CN(C(=O)CN6CCN(CC(=O)O)CCN(CC(=O)O)CCN(CC(=O)O)CC6)CCN5C(=O)CC[C@H](NC(=O)C[C@H](NC(=O)CCc5ccc(O)cc5)C(=O)O)C(=O)O)nn4)(CC2)CC3)s1.[Lu+3] [Compound 109.43] | < 1 nM | < 1 nM | 
17 | CC(CCC(=O)N[C@@H](CC(=O)N[C@@H](CC(=O)NC1(CCCCn2cc(CCCC(=O)Nc3nnc(S(N)(=O)=O)s3)nn2)CCN(C(=O)OCCOCCNC(=O)CN2CCN(CC(=O)O)CCN(CC(=O)O)CCN(CC(=O)O)CC2)CC1)C(=O)O)C(=O)O)(c1ccc(O)cc1)c1ccc(O)cc1.[Lu+3] [Compound 116.2] | 2.5 to 10 nM | 1 to 2.5 nM | 
18 | CC(CCCC(=O)N1CCC(C(=O)O)(C(=O)NCC(=O)N2CCN(C(=O)CN3CCN(CC(=O)O)CCN(CC(=O)O)CCN(CC(=O)O)CC3)C[C@@H]2C(=O)N[C@@H](Cn2cc(C34CC(C(=O)Nc5nnc(S(N)(=O)=O)s5)(C3)C4)nn2)C(=O)O)CC1)(c1ccc(O)cc1)c1ccc(O)cc1.[Lu+3] [Compound 107.23] | > 10 nM | < 1 nM | 
19 | NS(=O)(=O)c1nnc(NC(=O)C23CC(c4cn(CCNC(=O)[C@@H]5CN(C(=O)CN6CCN(CC(=O)O)CCN(CC(=O)O)CCN(CC(=O)O)CC6)CCN5C(=O)C[C@H](NC(=O)C[C@H](NC(=O)c5cc(C(F)(F)F)[nH]n5)C(=O)O)C(=O)O)nn4)(C2)C3)s1.[Lu+3] [Compound 109.6] | 2.5 to 10 nM | < 1 nM | 
20 | CC(CCC(=O)N[C@@H](CC(=O)N[C@@H](CC(=O)N1CCN(C(=O)[C@H](CCC(=O)NCCOCCOCCOCCOCCOCCOCCOCCOCCC(=O)N[C@@H](CCCCNC(=O)CCCc2ccc(Cl)cc2)C(=O)O)NC(=O)CN2CCN(CC(=O)O)CCN(CC(=O)O)CCN(CC(=O)O)CC2)C[C@H]1C(=O)NCCn1cc(C23CC(C(=O)Nc4nnc(S(N)(=O)=O)s4)(C2)C3)nn1)C(=O)O)C(=O)O)(c1ccc(O)cc1)c1ccc(O)cc1.[Lu+3] (racemic) [Compound 125.1] | > 10 nM | 2.5 to 10 nM | 
21 | NS(=O)(=O)c1nnc(NC(=O)C23CC(c4cn(CCCC[C@@H](C(=O)NCCOCCOCCNC(=O)CN5CCN(CC(=O)O)CCN(CC(=O)O)CCN(CC(=O)O)CC5)n5cc(C[C@H](NC(=O)C[C@H](NC(=O)c6n[nH]c7ccccc67)C(=O)O)C(=O)O)nn5)nn4)(C2)C3)s1.[Lu+3] [Compound 101.1] | 2.5 to 10 nM | < 1 nM | 
22 | NS(=O)(=O)c1nnc(NC(=O)C23CC(c4cn(CCNC(=O)[C@@H]5CN(C(=O)CN6CCN(CC(=O)O)CCN(CC(=O)O)CCN(CC(=O)O)CC6)CCN5C(=O)C[C@H](NC(=O)C[C@H](NC(=O)CC5CC6(CCC6)C5)C(=O)O)C(=O)O)nn4)(C2)C3)s1.[Lu+3] [Compound 109.18] | 1 to 2.5 nM | < 1 nM | 
23 | NS(=O)(=O)c1nnc(NC(=O)C23CC(c4cn(CCNC(=O)[C@H]5CNCCN5C(=O)[C@H](CCCCNC(=O)CN5CCN(CC(=O)O)CCN(CC(=O)O)CCN(CC(=O)O)CC5)NC(=O)CC[C@H](NC(=O)CCC5CCCCC5)C(=O)O)nn4)(C2)C3)s1.[Lu+3] [Compound 118] |  |  | Kd (human CA-XII; [6]): 2.5 to 10 nM; Kd (human CA-IX; [7]): 1 to 2.5 nM
